This is an account of results in ChEMBL document CHEMBL3994659, “Synthesis and antimicrobial evaluation of cationic low molecular weight amphipathic 1,2,3-triazoles” (Bioorg Med Chem Lett, 2017).

The test system of data set [1] is Pseudomonas aeruginosa. Kind of data set: microbe, parasite or virus in culture. The conditions noted are these: ATCC 27853.
Description: Antibacterial activity against Pseudomonas aeruginosa ATCC 27853 after overnight incubation by photometric method
The test system of data set [2] is Escherichia coli. Kind of data set: microbe, parasite or virus in culture. The conditions noted are these: ATCC 25922.
Description: Antibacterial activity against Escherichia coli ATCC 25922 after overnight incubation by photometric method
For data set [3], the system named is Enterococcus faecalis. As to the kind of experiment: Antibacterial activity against Enterococcus faecalis ATCC 29212 after overnight incubation by photometric method. Format: functional.
Another data set concerns Streptococcus agalactiae. Kind of data set: Antibacterial activity against Streptococcus agalactiae group B ATCC 12386 after overnight incubation by photometric method. Format: functional.
The next data set concerns Staphylococcus aureus. Kind of data set: Antibacterial activity against Staphylococcus aureus ATCC 25923 after overnight incubation by photometric method. Format: functional.
A further data set concerns MRC5. Kind of data set: Cytotoxicity against human MRC5 cells at <50 ug/ml. Format: cell-based.
Data set [4] concerns Staphylococcus epidermidis. Kind of data set: Inhibition of biofilm formation in Staphylococcus epidermidis at 50 ug/ml after overnight incubation by crystal violet staining based method. Format: functional.
Data set [5] has as its system Escherichia coli. As to the kind of experiment: Antibacterial activity against Escherichia coli ATCC 25922 at 50 ug/ml after overnight incubation by photometric method. Format: functional.
Data set [6] has as its system Pseudomonas aeruginosa. Kind of data set: Antibacterial activity against Pseudomonas aeruginosa ATCC 27853 at 50 ug/ml after overnight incubation by photometric method. Format: functional.
Data set [7] relates to Enterococcus faecalis. As to the kind of experiment: Antibacterial activity against Enterococcus faecalis ATCC 29212 at 50 ug/ml after overnight incubation by photometric method. Format: functional.

Active and inactive are the calls of the source. The calls are words filed in the database; no cut-off is given here.

For the molecule `CCCCCCCOc1ccc(-n2cc(CCCNC(=N)N)nn2)cc1.Cl`, the MIC was 8 µg/mL against Pseudomonas aeruginosa [1]; 8 µg/mL in the data set with Escherichia coli [2]; 8 µg/mL in the data set on Enterococcus faecalis [3]; 4 µg/mL in the data set with Streptococcus agalactiae; 4 µg/mL in the data set on Staphylococcus aureus.

With `CC(C)(C)c1cc(-n2cc(CCCNC(=N)N)nn2)cc(C(C)(C)C)c1.Cl`, the MIC against Pseudomonas aeruginosa [1] amounted to 16 µg/mL; against Escherichia coli [2], 16 µg/mL; with Enterococcus faecalis [3] it was 16 µg/mL; in the data set on Streptococcus agalactiae it was 4 µg/mL; against Staphylococcus aureus, 4 µg/mL.

On to `CN(C)CCc1cn(Cc2cc(C(F)(F)F)cc(C(F)(F)F)c2)nn1.Cl`, for which the Activity result in the data set with MRC5 is listed as “Non-Toxic”.

For the molecule `CCCCCCCOc1ccc(-n2cc(CCCN)nn2)cc1.Cl`, the MIC against Pseudomonas aeruginosa [1] came out at 16 µg/mL; against Escherichia coli [2] it was 8 µg/mL; against Enterococcus faecalis [3], 16 µg/mL; with Streptococcus agalactiae it was 8 µg/mL; in the data set on Staphylococcus aureus it was 16 µg/mL.

With `CN(C)CCc1cn(Cc2cc(C(C)(C)C)cc(C(C)(C)C)c2)nn1.Cl`, in data set [4], the “biofilm formation inhibition (active/not active)” value is “Active”. Besides, the Activity entry with MRC5 is given as “Non-Toxic”.

Turning to `CN(C)CCc1cn(Cc2ccccc2)nn1.Cl`, the Activity entry in the data set with MRC5 is recorded as “Non-Toxic”.

Consider `Cl.NCCc1cn(Cc2cc(C(F)(F)F)cc(C(F)(F)F)c2)nn1`, for which the Activity entry with MRC5 was “Non-Toxic”.

For `Cl.NCCc1cn(Cc2ccccc2)nn1`, the Activity result in the data set on MRC5 was “Non-Toxic”.

As to `Cl.N=C(N)NCCCc1cn(Cc2cc(C(F)(F)F)cc(C(F)(F)F)c2)nn1`, in the data set on MRC5, the Activity entry is reported as “Non-Toxic”.

For the molecule `Cl.N=C(N)NCCCc1cn(Cc2ccc3ccccc3c2)nn1`, the “biofilm formation inhibition (active/not active)” value in data set [4] was “Active”. For the same molecule, the Activity entry in the data set with MRC5 was “Non-Toxic”.

For the molecule `Cl.N=C(N)NCCc1cn(Cc2cc(C(F)(F)F)cc(C(F)(F)F)c2)nn1`, in the data set with MRC5, the Activity result is listed as “Non-Toxic”.

Take `Cl.NCCCc1cn(Cc2ccccc2)nn1`: the Activity result in the data set with MRC5 was “Non-Toxic”.

`CN(C)CCCc1cn(Cc2cc(C(C)(C)C)cc(C(C)(C)C)c2)nn1.Cl`: the MIC in the data set with Streptococcus agalactiae turned out to be 50 µg/mL; against Staphylococcus aureus it was 40 µg/mL. Moreover, the “biofilm formation inhibition (active/not active)” value in data set [4] is “Active”. Further, the outcome in the data set on Escherichia coli [5], in the data set with Pseudomonas aeruginosa [6] and in the data set with Enterococcus faecalis [7] was inactive. Moreover, in the data set with MRC5, the Activity entry is listed as “Non-Toxic”.

In the case of `CN(C)CCCc1cn(Cc2ccccc2)nn1.Cl`, the Activity entry with MRC5 is “Non-Toxic”.

With `CC(C)(C)c1cc(Cn2cc(CCCNC(=N)N)nn2)cc(C(C)(C)C)c1.Cl`, the MIC was found to be 40 µg/mL in the data set on Pseudomonas aeruginosa [1]; 40 µg/mL in the data set on Escherichia coli [2]; 40 µg/mL against Enterococcus faecalis [3]; 10 µg/mL in the data set with Streptococcus agalactiae; 10 µg/mL with Staphylococcus aureus. In data set [4], the “biofilm formation inhibition (active/not active)” value was “Active”. Also, the Activity result with MRC5 is “Non-Toxic”.

Consider `Cl.NCCCc1cn(Cc2cc(C(F)(F)F)cc(C(F)(F)F)c2)nn1`, for which, in the data set with MRC5, the Activity entry was “Non-Toxic”.

Take `Cl.N=C(N)NCCc1cn(Cc2ccccc2)nn1`: in the data set on MRC5, the Activity result is given as “Non-Toxic”.

For the molecule `CC(C)(C)c1cc(Cn2cc(CCN)nn2)cc(C(C)(C)C)c1.Cl`, the MIC in the data set with Pseudomonas aeruginosa [1] is 50 µg/mL; against Escherichia coli [2], 40 µg/mL; against Streptococcus agalactiae, 40 µg/mL; in the data set with Staphylococcus aureus, 40 µg/mL. For the same molecule, in data set [4], the “biofilm formation inhibition (active/not active)” value is “Active”. The Activity result with MRC5 is listed as “Non-Toxic”. Besides, the result with Enterococcus faecalis [7] was inactive.

For the molecule `CC(C)(C)c1cc(Cn2cc(CCNC(=N)N)nn2)cc(C(C)(C)C)c1.Cl`, the MIC was 40 µg/mL in the data set on Pseudomonas aeruginosa [1]; 50 µg/mL in the data set on Escherichia coli [2]; 40 µg/mL in the data set on Enterococcus faecalis [3]; 10 µg/mL with Streptococcus agalactiae; 20 µg/mL in the data set with Staphylococcus aureus. Besides, the “biofilm formation inhibition (active/not active)” value in data set [4] was “Active”. Moreover, the Activity entry in the data set with MRC5 is “Non-Toxic”.

Turning to `CN(C)CCCc1cn(Cc2cc(C(F)(F)F)cc(C(F)(F)F)c2)nn1.Cl`, the Activity entry with MRC5 is listed as “Non-Toxic”.

`CC(C)(C)c1cc(Cn2cc(CCCN)nn2)cc(C(C)(C)C)c1.Cl`: in data set [4], the “biofilm formation inhibition (active/not active)” value was “inactive”. Moreover, in the data set with MRC5, the Activity result is listed as “Non-Toxic”.

Consider `CC(C)(C)c1cc(-n2cc(CCCN)nn2)cc(C(C)(C)C)c1.Cl`, for which the MIC in the data set with Pseudomonas aeruginosa [1] was 32 µg/mL; in the data set with Escherichia coli [2] it was 16 µg/mL; against Enterococcus faecalis [3], 32 µg/mL; with Streptococcus agalactiae it was 16 µg/mL; in the data set with Staphylococcus aureus, 16 µg/mL.

Regarding `Cl.NCCc1cn(Cc2ccc3ccccc3c2)nn1`, the Activity entry in the data set on MRC5 is given as “Non-Toxic”.

In the case of `Cl.N=C(N)NCCCc1cn(Cc2ccccc2)nn1`, the Activity entry in the data set with MRC5 is “Non-Toxic”.

With `CN(C)CCc1cn(Cc2ccc3ccccc3c2)nn1.Cl`, the Activity result in the data set with MRC5 is “Non-Toxic”.

For GENTAMICIN, the MIC in the data set on Enterococcus faecalis [3] worked out at 10 µg/mL; against Streptococcus agalactiae it was 4 µg/mL; in the data set with Staphylococcus aureus, 0.13 µg/mL.

In the case of `Cl.NCCCc1cn(Cc2ccc3ccccc3c2)nn1`, the Activity entry with MRC5 was “Non-Toxic”.

On to `CN(C)CCCc1cn(Cc2ccc3ccccc3c2)nn1.Cl`, for which the Activity entry with MRC5 is on record as “Non-Toxic”.

With `Cl.N=C(N)NCCc1cn(Cc2ccc3ccccc3c2)nn1`, the Activity entry in the data set with MRC5 was “Non-Toxic”.
